Experimental data from patent publication US5780605A, “6,9-bridged erythromycin derivatives” (Abbott Laboratories, priority 1997, dated 1998).

Experiments:
Assay in all cases: in vitro antibacterial activity (MIC), BHI agar dilution
Assay type in all cases: cell-based
[1] = tested on: Staphylococcus aureus CMX 553; conditions: S. aureus CMX 553, 35-37° C., 20 to 24 hours
Method: (§1) Representative compounds of the present invention were assayed in vitro for antibacterial activity as follows: Twelve petri dishes containing successive aqueous dilutions of the test compound mixed with 10 mL of sterilized Brain Heart Infusion (BHI) agar (Difco 0418-01-5) were prepared. Each plate was inoculated with 1:100 (or 1:10 for slow-growing strains, such as Micrococcus and Streptococcus) dilutions of up to 32 different microorganisms, using a Steers replicator block. […] In addition, a control plate, using BHI agar containing no test compound, was prepared and incubated at the beginning and end of each test.
(§2) An additional plate containing a compound having known susceptibility patterns for the organisms being tested and belonging to the same antibiotic class as the test compound was also prepared and incubated as a further control, as well as to provide test-to-test comparability.
(§3) After incubation, each plate was visually inspected. The minimum inhibitory concentration (MIC) was defined as the lowest concentration of drug yielding no growth, a slight haze, or sparsely isolated colonies on the inoculum spot as compared to the growth control.

[2] = tested on: Streptococcus pyogenes EES61; conditions: S. pyogenes EES61, 35-37° C., 20 to 24 hours
Method: as §1, §2, §3

[3] = tested on: Micrococcus luteus ATCC 9341; conditions: M. luteus ATCC 9341, 35-37° C., 20 to 24 hours
Method: as §1, §2, §3

[4] = tested on: Streptococcus pyogenes PIU 2548; conditions: S. pyogenes PIU 2548, 35-37° C., 20 to 24 hours
Method: as §1, §2, §3

[5] = tested on: Enterococcus faecium ATCC 8043; conditions: E. faecium ATCC 8043, 35-37° C., 20 to 24 hours
Method: as §1, §2, §3

[6] = tested on: Escherichia coli DC-2; conditions: E. coli DC-2, 35-37° C., 20 to 24 hours
Method: as §1, §2, §3

[7] = tested on: Staphylococcus aureus A5177; conditions: S. aureus A5177, 35-37° C., 20 to 24 hours
Method: as §1, §2, §3

[8] = tested on: Streptococcus pyogenes 930; conditions: S. pyogenes 930, 35-37° C., 20 to 24 hours
Method: as §1, §2, §3

[9] = tested on: Mycobacterium smegmafis ATCC 114; conditions: 35-37° C., 20 to 24 hours
Method: as §1, §2, §3

[10] = tested on: Staphylococcus aureus ATCC 6538P; conditions: S. aureus ATCC 6538P, 35-37° C., 20 to 24 hours
Method: as §1, §2, §3

[11] = tested on: Streptococcus agalactiae CMX 508; conditions: S. agalactiae CMX 508, 35-37° C., 20 to 24 hours
Method: as §1, §2, §3

[12] = tested on: Haemophilis Influenzae DILL AMP R; conditions: 35-37° C., 20 to 24 hours
Method: as §1, §2, §3

[13] = tested on: Escherichia coli JUHL; conditions: E. coli JUHL, 35-37° C., 20 to 24 hours
Method: as §1, §2, §3

[14] = tested on: Streptococcus Pheumoniae ATCC6303; conditions: 35-37° C., 20 to 24 hours
Method: as §1, §2, §3

[15] = tested on: Streptococcus Pheumoniae GYR 1171; conditions: 35-37° C., 20 to 24 hours
Method: as §1, §2, §3

[16] = tested on: Staphylococcus aureus 1775; conditions: S. aureus 1775, 35-37° C., 20 to 24 hours
Method: as §1, §2, §3

[17] = tested on: Micrococcus luteus ATCC 4698; conditions: M. luteus ATCC 4698, 35-37° C., 20 to 24 hours
Method: as §1, §2, §3

[18] = tested on: Staphylococcus aureus NCTC10649M; conditions: S. aureus NCTC10649M, 35-37° C., 20 to 24 hours
Method: as §1, §2, §3

[19] = tested on: Staphylococcus epidermidis 3519; conditions: S. epidermidis 3519, 35-37° C., 20 to 24 hours
Method: as §1, §2, §3

[20] = tested on: Streptococcus bovis A-5169; conditions: S. bovis A-5169, 35-37° C., 20 to 24 hours
Method: as §1, §2, §3

[21] = tested on: Staphylococcus aureus A-5278; conditions: S. aureus A-5278, 35-37° C., 20 to 24 hours
Method: as §1, §2, §3

[22] = tested on: Streptococcus Pheumoniae 5649; conditions: 35-37° C., 20 to 24 hours
Method: as §1, §2, §3

[23] = tested on: Candida albicans CCH 442; conditions: C. albicans CCH 442, 35-37° C., 20 to 24 hours
Method: as §1, §2, §3

[24] = tested on: Staphylococcus aureus CMX 642A; conditions: S. aureus CMX 642A, 35-37° C., 20 to 24 hours
Method: as §1, §2, §3

[25] = tested on: Escherichia coli SS; conditions: E. coli SS, 35-37° C., 20 to 24 hours
Method: as §1, §2, §3

[26] = tested on: Nocardia Asteroides ATCC9970; conditions: 35-37° C., 20 to 24 hours
Method: as §1, §2, §3

[27] = tested on: Streptococcus Pheumoniae 5979; conditions: 35-37° C., 20 to 24 hours
Method: as §1, §2, §3

Structure (SMILES) | MIC (minimum inhibitory concentration) [1] | MIC (minimum inhibitory concentration) [2] | MIC (minimum inhibitory concentration) [3] | MIC (minimum inhibitory concentration) [4] | MIC (minimum inhibitory concentration) [5] | MIC (minimum inhibitory concentration) [6] | MIC (minimum inhibitory concentration) [7] | MIC (minimum inhibitory concentration) [8] | MIC (minimum inhibitory concentration) [9] | MIC (minimum inhibitory concentration) [10] | MIC (minimum inhibitory concentration) [11] | MIC (minimum inhibitory concentration) [12] | MIC (minimum inhibitory concentration) [13] | MIC (minimum inhibitory concentration) [14] | MIC (minimum inhibitory concentration) [15] | MIC (minimum inhibitory concentration) [16] | MIC (minimum inhibitory concentration) [17] | MIC (minimum inhibitory concentration) [19] | MIC (minimum inhibitory concentration) [20] | MIC (minimum inhibitory concentration) [21] | other results
CC[C@H]1OC(=O)[C@H](C)[C@@H](O[C@H]2C[C@@](C)(OC)[C@@H](O)[C@H](C)O2)[C@H](C)[C@@H](O[C@@H]2O[C@H](C)C[C@H](N(C)C)[C@H]2O)[C@](C)(O)C[C@@H](C)C(=O)[C@H](C)[C@@H](O)[C@]1(C)O [Ery. A, Erythromycin A, reference compound] | 0.39 | 0.05 | 0.05 | 6.2 | 0.05 | > 100 | 3.1 | > 100 | 3.1 | 0.2 | 0.05 | 4 | > 100 | 0.06 | 0.06 | > 100 | 0.2 | 0.39 | 0.02 | > 100 | MIC (minimum inhibitory concentration) [18]: 0.39; MIC (minimum inhibitory concentration) [22]: 16; MIC (minimum inhibitory concentration) [23]: > 100; MIC (minimum inhibitory concentration) [24]: 0.39
CC[C@H]1OC(=O)[C@H](C)[C@@H](O[C@H]2C[C@@](C)(OC)[C@@H](O)[C@H](C)O2)[C@H](C)[C@@H](O[C@@H]2O[C@H](C)C[C@H](N(C)C)[C@H]2O)[C@@]2(C)C[C@@H](C)C(=NOCO2)[C@H](C)[C@@H](O)[C@]1(C)O [Example 1] | 6.2 | 0.39 | 0.2 | 6.2 | 1.56 | > 100 | > 100 | > 100 | 1.56 | 6.2 | 0.39 | 32 | > 100 | 1 | 0.5 | > 100 | 1.56 | 6.2 | 0.39 | > 100 | MIC (minimum inhibitory concentration) [25]: 1.56; MIC (minimum inhibitory concentration) [18]: 6.2; MIC (minimum inhibitory concentration) [26]: 0.39; MIC (minimum inhibitory concentration) [27]: > 64; MIC (minimum inhibitory concentration) [22]: 4; MIC (minimum inhibitory concentration) [23]: > 100; MIC (minimum inhibitory concentration) [24]: 12.5
CC[C@H]1OC(=O)[C@H](C)[C@@H](O[C@H]2C[C@@](C)(OC)[C@@H](O)[C@H](C)O2)[C@H](C)[C@@H](O[C@@H]2O[C@H](C)C[C@H](N(C)C)[C@H]2O)[C@@]2(C)C[C@@H](C)C(=NOCO2)[C@H](C)[C@H]2OC(=O)O[C@@]21C [Example 2] | 0.78 | <= 0.005 | 0.1 | 3.1 | 0.1 | 25 | 3.1 | > 100 | 3.1 | 0.39 | 0.05 | 2 | 50 | 0.06 | 0.03 | > 100 | 0.39 | 0.39 | 0.02 | > 100 | MIC (minimum inhibitory concentration) [25]: 0.78; MIC (minimum inhibitory concentration) [26]: 0.1; MIC (minimum inhibitory concentration) [27]: > 128; MIC (minimum inhibitory concentration) [22]: 4; MIC (minimum inhibitory concentration) [23]: > 100; MIC (minimum inhibitory concentration) [24]: 0.39
